Data as given in publication PMC9064041 (Journal of medicinal chemistry, 2020).
Converted amounts (≈) assume the structure as drawn. “And” between values parts separate entries of the source, which are not always exact repeats. Equal values may be shown once.

Key:
[1] = test system: C. difficile ATCC BAA 1801; experiment: MIC, broth microdilution, initial screening; assay type: cell-based, Clostridioides difficile; settings: for MIC: Clostridioides difficile, BAA1801, 48 h
[2] = test system: C. difficile NR-32891 (P13); experiment: MIC, broth microdilution, clinical isolate; assay type: cell-based; settings: Clostridioides difficile
[3] = test system: C. difficile NR-32904 (P30); experiment: MIC, broth microdilution, clinical isolate; assay type: cell-based; settings: Clostridioides difficile
C. difficile ATCC 43255 [4] = experiment: MIC, broth microdilution, clinical isolate; assay type: cell-based; settings: Clostridioides difficile, ATCC43255
[5] = test system: Lactobacillus gasseri HM-400; experiment: MIC against normal gut microbiota; assay type: cell-based; settings: HM400
[6] = test system: Lactobacillus crispatus HM-103; experiment: MIC against normal gut microbiota; assay type: cell-based; settings: HM103
[7] = test system: Lactobacillus crispatus HM-371; experiment: MIC against normal gut microbiota; assay type: cell-based; settings: HM371
[8] = test system: Bacteroides fragilis HM-711; experiment: MIC against normal gut microbiota; assay type: cell-based; settings: HM711
[9] = test system: Bacteroides fragilis HM-709; experiment: MIC against normal gut microbiota; assay type: cell-based; settings: HM709
[10] = test system: E. coli JW55031 (TolC Mutant); experiment: MIC, broth microdilution; assay type: cell-based; settings: Escherichia coli
[11] = test system: E. coli BW25113 (wild-type strain); experiment: MIC, broth microdilution; assay type: cell-based, Escherichia coli; settings: for MIC: Escherichia coli, BW25113
[12] = test system: C. difficile NR-13432 (isolate 6); experiment: MIC, broth microdilution, clinical isolate; assay type: cell-based; settings: Clostridioides difficile
[13] = test system: C. difficile NR-13435 (isolate 9); experiment: MIC, broth microdilution, clinical isolate; assay type: cell-based; settings: Clostridioides difficile
E. faecium ATCC 700221 = experiment: MIC, broth microdilution; assay type: cell-based; settings: Enterococcus faecium, ATCC700221
E. faecalis ATCC 51299 = experiment: MIC, broth microdilution; assay type: cell-based; settings: Enterococcus faecalis, ATCC51299
VRE clinical isolates = experiment: MIC range over VRE clinical isolates; assay type: cell-based, vancomycin-resistant enterococci; settings: Enterococcus, read-out: MICs ranging over VRE clinical isolates
Lactobacillus strains = experiment: MIC over Lactobacillus strains; assay type: cell-based, Lactobacillus spp; settings: read-out: MIC against Lactobacillus strains
Bacteroides spp = experiment: MIC over Bacteroides species; assay type: cell-based; settings: read-out: MIC against species of Bacteroides
[14] = test system: human colorectal cells (Caco-2); experiment: In vitro cytotoxicity, MTS assay; assay type: cell-based; settings: 2 hours incubation with compound
Caco-2 bilayers = experiment: Caco-2 bidirectional permeability assay; assay type: in vitro ADME, human
C. difficile ATCC 43255 [15] = experiment: Frequency of spontaneous mutation; settings: for isolation of resistant mutants: high inoculum
[16] = test system: C. difficile NR-32883 (P2); experiment: MIC, broth microdilution, clinical isolate; assay type: cell-based; settings: Clostridioides difficile
[17] = test system: C. difficile NR-32895 (P19); experiment: MIC, broth microdilution, clinical isolate; assay type: cell-based; settings: Clostridioides difficile
[18] = test system: C. difficile infection (CDI); settings: cited from earlier work
[19] = cited from earlier work
[20] = 15 × MIC, inoculum ~10^9 CFU/mL
[21] = 20 × MIC, inoculum ~10^9 CFU/mL
[22] = C. difficile ATCC BAA 1801, anaerobic, 48 hours

SMILES	MIC (C. difficile ATCC 43255 [4]) [µg/mL]	MIC [5]	MIC [6]	MIC [7] [µg/mL]	MIC [8]	MIC [9] [µg/mL]	MIC [10]	MIC [11]	MIC (E. faecium ATCC 700221) [µg/mL]	MIC (E. faecalis ATCC 51299) [µg/mL]	MIC [1, 22] [µg/mL]	further results
Cc1ccc(-c2nnc(NC(=O)c3ccc(SC(F)(F)F)cc3)o2)cc1 [Compound 12, N-(5-(4-Methylphenyl)-1,3,4-oxadiazol-2-yl)-4-((trifluoromethyl)thio)benzamide]												activity against C. difficile ATCC BAA 1801 in words [1]: only moderate to no actvity
CCc1c(Cl)c(O)c(Cl)c(O)c1C(=O)O[C@H]1[C@H](O)[C@H](OC)[C@H](OC/C2=C\C=C\C[C@H](O)/C(C)=C/[C@H](CC)[C@@H](O[C@@H]3OC(C)(C)[C@@H](OC(=O)C(C)C)[C@H](O)[C@@H]3O)/C(C)=C/C(C)=C/C[C@@H]([C@@H](C)O)OC2=O)O[C@@H]1C [Fidaxomicin]	0.015 (≈ 0.0142 µM)	> 64 µg/mL	> 64 µg/mL and > 60.5 µM	> 64	> 64 µg/mL and > 60.5 µM	> 64						MIC [2]: 0.015 µg/mL (≈ 0.0142 µM); MIC [3]: 0.015 µg/mL (≈ 0.0142 µM)
CNC(C)C1CCC(N)C(OC2C(N)CC(N)C(OC3OCC(C)(O)C(NC)C3O)C2O)O1 (stereo not shown) [Gentamicin]							0.25 µg/mL and 0.52 µM	0.25 µg/mL and 0.52 µM				
O=C(Nc1nnc(-c2cc(Cl)cc(Cl)c2)o1)c1ccc(SC(F)(F)F)cc1 [HSGN-218, N-(5-(3,5-Dichlorophenyl)-1,3,4-oxadiazol-2-yl)-4-((trifluoromethyl)thio)benzamide]	0.015 (≈ 0.0345 µM)	16 µg/mL (≈ 36.8 µM)	16 µg/mL (≈ 36.8 µM)	16 (≈ 36.8 µM)	2 µg/mL (≈ 4.61 µM)	1 (≈ 2.3 µM)	4 µg/mL (≈ 9.21 µM)	> 16 µg/mL	0.125 (≈ 0.288 µM)	0.06 (≈ 0.138 µM)		MIC [12]: 0.03 µg/mL (≈ 0.0691 µM); MIC [13]: 0.003 µg/mL (≈ 0.00691 µM); activity against E. coli BW25113 in words ([11]; wild-type strain): inactive; MIC (VRE clinical isolates): 0.06 µg/mL to 0.125 µg/mL and 0.14 µM to 0.29 µM; MIC (Lactobacillus strains): 16 µg/mL (≈ 36.8 µM); MIC (Bacteroides spp): 1 µg/mL to 2 µg/mL and 2.3 µM to 4.6 µM; concentration highly tolerable to Caco-2 cells [14]: higher than 64 μg/mL; Notes (permeability class) (Caco-2 bilayers): Low Permeability; isolation of resistant mutants (C. difficile ATCC 43255 [15]; 15 × MIC and 20 × MIC): No resistant mutants were isolated; Frequency of mutation (C. difficile ATCC 43255 [15]; [20]): <1.1× 10^−9; Frequency of mutation (C. difficile ATCC 43255 [15]; [21]): <1.1× 10^−9
CC(=O)NC[C@H]1CN(c2ccc(N3CCOCC3)c(F)c2)C(=O)O1 [Linezolid]							16 µg/mL (≈ 47.4 µM)	> 64 µg/mL and > 190 µM	1 (≈ 2.96 µM)	1 (≈ 2.96 µM)		
Cc1ncc([N+](=O)[O-])n1CCO [Metronidazole]	0.25 (≈ 1.46 µM)	> 64 µg/mL	> 64 µg/mL and > 374 µM	> 64	≤ 1 µg/mL	2 (≈ 11.7 µM)			> 64	> 64	0.25 (≈ 1.46 µM)	MIC [12]: 0.25 µg/mL (≈ 1.46 µM); MIC [13]: 0.125 µg/mL (≈ 0.73 µM); MIC [16]: 0.125 µg/mL (≈ 0.73 µM); MIC [2]: 0.125 µg/mL (≈ 0.73 µM); MIC [17]: 0.25 µg/mL (≈ 1.46 µM); MIC [3]: 0.25 µg/mL (≈ 1.46 µM); treatment failure [18]: 22%; bioavailable (absorption from the intestinal tract) [19]: 100%
CC(C)NCC(O)COc1cccc2ccccc12 (stereo not shown) [Propranolol]												Notes (permeability class) (Caco-2 bilayers): High Permeability Control
CNC(=C[N+](=O)[O-])NCCSCc1ccc(CN(C)C)o1 [Ranitidine]												Notes (permeability class) (Caco-2 bilayers): Low Permeability Control
CN[C@H](CC(C)C)C(=O)N[C@H]1C(=O)N[C@@H](CC(N)=O)C(=O)N[C@H]2C(=O)N[C@H]3C(=O)N[C@H](C(=O)N[C@H](C(=O)O)c4cc(O)cc(O)c4-c4cc3ccc4O)[C@H](O)c3ccc(c(Cl)c3)Oc3cc2cc(c3O[C@@H]2O[C@H](CO)[C@@H](O)[C@H](O)[C@H]2O[C@H]2C[C@](C)(N)[C@H](O)[C@H](C)O2)Oc2ccc(cc2Cl)[C@H]1O [Vancomycin]	1 (≈ 0.69 µM)	≤ 1 µg/mL and ≤ 0.7 µM	2 µg/mL (≈ 1.38 µM)	2 (≈ 1.38 µM)	64 µg/mL (≈ 44.2 µM)	32 (≈ 22.1 µM)	> 64 µg/mL	> 64 µg/mL	32 (≈ 22.1 µM)	> 64		MIC [1]: 1 µg/mL (≈ 0.69 µM); MIC [12]: 0.25 µg/mL (≈ 0.173 µM); MIC [13]: 1 µg/mL (≈ 0.69 µM); MIC [16]: 0.5 µg/mL (≈ 0.345 µM); MIC [2]: 0.5 µg/mL (≈ 0.345 µM); MIC [17]: 1 µg/mL (≈ 0.69 µM); MIC [3]: 1 µg/mL (≈ 0.69 µM); MIC (Lactobacillus strains): 1 µg/mL to 2 µg/mL and 0.7 µM to 1.4 µM; MIC (Bacteroides spp): 32 µg/mL to 64 µg/mL and 22.1 µM to 44.2 µM; treatment failure [18]: 14%; Frequency of mutation (C. difficile ATCC 43255 [15]; 15 × MIC and 20 × MIC): < 1.1× 10^−9; isolation of resistant mutants (C. difficile ATCC 43255 [15]; 15 × MIC and 20 × MIC): no resistant mutants were isolated; Frequency of mutation (C. difficile ATCC 43255 [15]; [20]): <1.1× 10^−9; Frequency of mutation (C. difficile ATCC 43255 [15]; [21]): <1.1× 10^−9
O=C(Nc1nnc(-c2ccccc2)o1)c1ccc(SC(F)(F)F)cc1 [compound 1, N-(5-Phenyl-1,3,4-oxadiazol-2-yl)-4-((trifluoromethyl)thio)benzamide]											2 (≈ 5.47 µM)	
O=C(Nc1nnc(-c2ccccc2F)o1)c1ccc(SC(F)(F)F)cc1 [compound 2, N-(5-(2-Fluorophenyl)-1,3,4-oxadiazol-2-yl)-4-((trifluoromethyl)thio)benzamide]											4 (≈ 10.4 µM)	
O=C(Nc1nnc(-c2ccccc2Cl)o1)c1ccc(SC(F)(F)F)cc1 [compound 3, N-(5-(2-Chlorophenyl)-1,3,4-oxadiazol-2-yl)-4-((trifluoromethyl)thio)benzamide]											4 (≈ 10 µM)	
